How the values were obtained:
Type in all cases: cell-based
glioblastoma cell lines = experiment: Cell proliferation of glioblastoma cell lines (FIG. 7)
brain CSCs [1] = experiment: Colony formation by brain CSCs (FIG. 8)
breast cancer cells = experiment: Cell proliferation of breast cancer cells (FIG. 12)
[2] = tested on: human normal lung epithelial cells (Beas 2B); experiment: Cell proliferation of normal lung epithelial cells (FIG. 9)
brain CSCs [3] = experiment: Cell proliferation of brain CSCs (FIG. 7)
lung cancer cells (A549) = experiment: Cell proliferation of lung cancer cells (FIG. 9)
lung cancer cells = experiment: Colony formation by lung cancer cells (FIG. 10)
glioblastoma cells = experiment: Colony formation by glioblastoma cells (FIG. 8)
prostate cancer cells = experiment: Cell proliferation of prostate cancer cells (FIG. 13)
colorectal CSCs = experiment: Cell proliferation of colorectal CSCs (FIG. 11)

Q: Which results are given for Nc1nc(CC(=O)Nc2ccc(CCNC[C@H](O)c3ccccc3)cc2)cs1 [Mirabegron]?
A: cell proliferation (glioblastoma cell lines): inhibits cell proliferation; colony formation (brain CSCs [1]): inhibits colony formation; cell proliferation (breast cancer cells): inhibits cell proliferation; cell proliferation [2]: has no effect; cell proliferation (brain CSCs [3]): inhibits cell proliferation; cell proliferation (lung cancer cells (A549)): inhibits cell proliferation; colony formation (lung cancer cells): inhibits colony formation; colony formation (glioblastoma cells): inhibits colony formation; cell proliferation (prostate cancer cells): inhibits cell proliferation; cell proliferation (colorectal CSCs): inhibits cell proliferation

Source: patent publication US20190336486A1, “METHODS FOR TREATING CANCER AND METABOLIC SYNDROME” (GLAX LLC, priority 2018, published 2019)
